Tests used:
Assay in all cases: Bliss excess, mean over the matrix (fraction); higher = more synergy
[1] = tested on: JiyoyeP-2003 (Burkitt's Lymphoma)
Method in brief: (§1)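 After 24 hours at 37°C and 5% CO2 in 1536-well plates, cells in DMEM/F12 or RPMI plus 10% FBS received two-drug dose matrices for 72 hours. Viability came from CellTiter-Glo 2.0 luminescence and was scaled as inhibition, anchored at 0 by vehicle wells and at 1 by blank wells. Combination Emax is taken as the second-highest inhibition in the matrix, and Bliss excess as the observed combination effect less EA + EB − EA·EB, with EA and EB the single-agent effects.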

[2] = tested on: KM-H2 (Hodgkin's Lymphoma)
Method in brief: as §1

[3] = tested on: C3A (Hepatocellular Carcinoma)
Method in brief: as §1

SK-N-FI (Neuroblastoma) = tested on: SK-N-FI (Neuroblastoma)
Method in brief: as §1

[4] = tested on: KARPAS-1106P (B-Cell Non-Hodgkin's Lymphoma)
Method in brief: as §1

[5] = tested on: SW1783 (Low Grade Glioma)
Method in brief: as §1

[6] = tested on: TE-5 (Esophageal Squamous Cell Carcinoma)
Method in brief: as §1

[7] = tested on: NCI-H1694 (Small Cell Lung Carcinoma)
Method in brief: as §1

[8] = tested on: SNU-C5 (Colorectal Carcinoma)
Method in brief: as §1

[9] = tested on: CFPAC-1 (Pancreatic Carcinoma)
Method in brief: as §1

[10] = tested on: MDA-MB-231 (Breast Carcinoma)
Method in brief: as §1

ES7 (Ewing's Sarcoma) = tested on: ES7 (Ewing's Sarcoma)
Method in brief: as §1

[11] = tested on: LU-99A (Non-Small Cell Lung Carcinoma)
Method in brief: as §1

[12] = tested on: 697 (B-Lymphoblastic Leukemia)
Method in brief: as §1

DSH1 (Bladder Carcinoma) = tested on: DSH1 (Bladder Carcinoma)
Method in brief: as §1

[13] = tested on: COR-L23 (Non-Small Cell Lung Carcinoma)
Method in brief: as §1

[14] = tested on: SW780 (Bladder Carcinoma)
Method in brief: as §1

[15] = tested on: KARPAS-620 (Plasma Cell Myeloma)
Method in brief: as §1

RH-1 (Ewing's Sarcoma) = tested on: RH-1 (Ewing's Sarcoma)
Method in brief: as §1

NCI-H2595 (Mesothelioma) = tested on: NCI-H2595 (Mesothelioma)
Method in brief: as §1

| SMILES | Bliss excess [1] | Bliss excess [2] | Bliss excess [3] | Bliss excess (SK-N-FI (Neuroblastoma)) | Bliss excess [4] | Bliss excess [5] | Bliss excess [6] | Bliss excess [7] | Bliss excess [8] | Bliss excess [9] | Bliss excess [10] | Bliss excess (ES7 (Ewing's Sarcoma)) | Bliss excess [11] | Bliss excess [12] | Bliss excess (DSH1 (Bladder Carcinoma)) | Bliss excess [13] | Bliss excess [14] | Bliss excess [15] | Bliss excess (RH-1 (Ewing's Sarcoma)) | Bliss excess (NCI-H2595 (Mesothelioma)) |
| --- | --- | --- | --- | --- | --- | --- | --- | --- | --- | --- | --- | --- | --- | --- | --- | --- | --- | --- | --- | --- |
| CN(C)CCCOc1ccc(-c2ccc3ncc4c(c3c2)n(C2CCOCC2)c(=O)n4C)cn1 [AZD0156] + C=CCn1c(=O)c2cnc(Nc3ccc(N4CCN(C)CC4)cc3)nc2n1-c1cccc(C(C)(C)O)n1 [AZD1775] (first compound max 1 µM, partner max 1 µM) | -0.0012 | 0.0303 | -0.0866 | -0.0308 | -0.0384 | -0.0624 | -0.0388 | -0.0303 | -0.0296 | -0.0645 | -0.0415 | -0.0153 | -0.0422 | 0.0183 | 0.0236 | 0.0047 | -0.0311 | 0.0135 | 0.0329 | -0.062 |
| CN(C)CCCOc1ccc(-c2ccc3ncc4c(c3c2)n(C2CCOCC2)c(=O)n4C)cn1 [AZD0156] + CCN(CCO)CCCOc1ccc2c(Nc3cc(CC(=O)Nc4cccc(F)c4)[nH]n3)ncnc2c1 [AZD2811] (first compound max 1 µM, 7x7, partner max 1 µM) | 0.0832 | 0.0446 | -0.0792 | -0.0144 | -0.0003 | -0.0452 | -0.0536 | 0.0516 | 0.0043 | -0.0713 | -0.0296 | -0.0172 | -0.0341 | -0.015 | 0.0062 | -0.0073 | -0.0268 | 0.112 | -0.0337 | -0.0334 |
| CN(C)CCCOc1ccc(-c2ccc3ncc4c(c3c2)n(C2CCOCC2)c(=O)n4C)cn1 [AZD0156] + C[C@@H]1COCCN1C2=NC(=NC(=C2)C3(CC3)[S@](=N)(=O)C)C4=C5C=CNC5=NC=C4 [AZD6738] (first compound max 1 µM, 7x7, partner max 10 µM) | 0.0501 | 0.0658 | 0.0318 | 0.0055 | 0.0462 | -0.0435 | -0.0609 | 0.0229 | 0.0298 | -0.0137 | 0.0105 | 0.0225 | -0.0423 | 0.0085 | 0.0773 | 0.045 | -0.0372 | 0.0058 | 0.0731 | -0.0438 |
| CN(C)CCCOc1ccc(-c2ccc3ncc4c(c3c2)n(C2CCOCC2)c(=O)n4C)cn1 [AZD0156] + O=C(c1cc(Cc2n[nH]c(=O)c3ccccc23)ccc1F)N1CCN(C(=O)C2CC2)CC1 [Olaparib] (first compound max 3 µM, partner max 3 µM) | 0.007 | 0.0575 | -0.0171 | -0.0123 | 0.0471 | 0.007 | -0.0241 | – | 0.0621 | -0.0026 | 0.0221 | 0.291 | -0.0145 | 0.186 | 0.0328 | -0.0155 | -0.0007 | 0.0798 | 0.265 | -0.0288 |
| C=CCn1c(=O)c2cnc(Nc3ccc(N4CCN(C)CC4)cc3)nc2n1-c1cccc(C(C)(C)O)n1 [AZD1775] + C1CN(CCC1(C(=O)N[C@@H](CCO)C2=CC=C(C=C2)Cl)N)C3=NC=NC4=C3C=CN4 [Capivasertib] (first compound max 3 µM, partner max 3 µM) | -0.0726 | 0.0333 | -0.0262 | -0.0442 | 0.0135 | -0.0787 | 0.0129 | – | -0.034 | 0.0135 | -0.0181 | – | -0.0106 | 0.0337 | 0.0495 | 0.0185 | 0.0017 | – | -0.0509 | -0.0787 |
| C=CCn1c(=O)c2cnc(Nc3ccc(N4CCN(C)CC4)cc3)nc2n1-c1cccc(C(C)(C)O)n1 [AZD1775] + C[C@@H]1COCCN1C2=NC(=NC(=C2)C3(CC3)[S@](=N)(=O)C)C4=C5C=CNC5=NC=C4 [AZD6738] (first compound max 1 µM, partner max 10 µM) | 0.046 | 0.0647 | -0.0104 | -0.0346 | 0.0072 | -0.0432 | -0.0843 | 0.0818 | -0.0173 | -0.0369 | 0.0726 | 0.0753 | -0.0377 | 0.047 | 0.0201 | 0.0462 | -0.0092 | 0.0335 | 0.0329 | -0.0206 |
| C=CCn1c(=O)c2cnc(Nc3ccc(N4CCN(C)CC4)cc3)nc2n1-c1cccc(C(C)(C)O)n1 [AZD1775] + O=C(c1cc(Cc2n[nH]c(=O)c3ccccc23)ccc1F)N1CCN(C(=O)C2CC2)CC1 [Olaparib] (first compound max 1 µM, partner max 10 µM) | -0.0086 | 0.0084 | -0.0179 | -0.0569 | -0.0513 | -0.0028 | -0.0488 | -0.036 | -0.0485 | -0.0585 | -0.0267 | -0.0453 | -0.0603 | 0.0782 | -0.0534 | -0.0182 | -0.0262 | -0.0324 | 0.044 | -0.0218 |
| CCN(CCO)CCCOc1ccc2c(Nc3cc(CC(=O)Nc4cccc(F)c4)[nH]n3)ncnc2c1 [AZD2811] + C=CCn1c(=O)c2cnc(Nc3ccc(N4CCN(C)CC4)cc3)nc2n1-c1cccc(C(C)(C)O)n1 [AZD1775] (first compound max 1 µM, partner max 1 µM) | 0.0548 | 0.0339 | -0.0279 | -0.0452 | -0.0241 | -0.073 | -0.076 | 0.0223 | 0.0188 | -0.0695 | 0.009 | -0.0468 | -0.0354 | 0.0164 | -0.0013 | -0.0043 | 0.0194 | -0.0619 | -0.0163 | -0.0509 |
| COc1nnc2ccc(N3CCC(c4ccc(OCCN5CCN(C)C(=O)[C@H]5C)cc4)CC3)nn12 [AZD5153] + CN(CC[C@H](CSC1=CC=CC=C1)NC2=C(C=C(C=C2)S(=O)(=O)NC(=O)C3=CC=C(C=C3)N4CCC(CC4)[C@H](C5=CC=CC=C5C6=CC=C(C=C6)Cl)O)S(=O)(=O)C(F)(F)F)CCO [AZD4320] (first compound max 1 µM, 7x7, partner max 1 µM) | -0.0036 | -0.0319 | 0.0705 | – | – | – | – | 0.0607 | 0.0451 | -0.0328 | – | – | 0.128 | -0.0709 | – | -0.0014 | -0.0091 | – | -0.0001 | – |
| Cc1c2c(nn1C)CSCc1cc(n(C)n1)CSc1cc(c3ccccc3c1)OCCCc1c(C(=O)O)n(C)c3c-2c(Cl)ccc13 [AZD5991] + C=CCn1c(=O)c2cnc(Nc3ccc(N4CCN(C)CC4)cc3)nc2n1-c1cccc(C(C)(C)O)n1 [AZD1775] (first compound max 1 µM, partner max 1 µM) | -0.0253 | -0.0181 | 0.0084 | -0.0478 | -0.011 | – | 0.0264 | -0.0247 | 0.0145 | 0.0535 | -0.0812 | 0.0155 | 0.017 | -0.0264 | -0.0115 | -0.0079 | 0.0046 | -0.0032 | -0.0575 | -0.0127 |
| Cc1c2c(nn1C)CSCc1cc(n(C)n1)CSc1cc(c3ccccc3c1)OCCCc1c(C(=O)O)n(C)c3c-2c(Cl)ccc13 [AZD5991] + C[C@@H](Nc1cc(F)cc(F)c1)c1cc(C(=O)N(C)C)cc2c(=O)cc(N3CCOCC3)oc12 [AZD8186] (first compound max 1 µM, 7x7, partner max 3 µM) | 0.0635 | -0.0338 | -0.0375 | -0.024 | 0.0154 | 0.0037 | -0.0172 | 0.0151 | 0.0464 | -0.0077 | -0.015 | 0.0995 | -0.0534 | -0.0743 | -0.0603 | -0.032 | 0.0157 | -0.0113 | – | 0.0369 |
| COc1cc2ncnc(Nc3ccc(F)c(Cl)c3)c2cc1OCCCN1CCOCC1 [Gefitinib] + CC(C)n1c(=O)n(C)c2cnc3cc(F)c(-c4ccc(OCCCN5CCCCC5)nc4)cc3c21 [AZD1390] (first compound max 10 µM, 7x7, partner max 0.3 µM) | -0.0386 | -0.0312 | -0.11 | -0.0391 | -0.0393 | -0.0571 | -0.045 | – | -0.0751 | -0.0676 | -0.0659 | -0.0916 | – | -0.0787 | -0.0351 | -0.069 | -0.0642 | -0.0538 | -0.0399 | -0.0596 |
| CC(=O)c1c(C)c2cnc(Nc3ccc(N4CCNCC4)cn3)nc2n(C2CCCC2)c1=O [Palbociclib] + CN(CC[C@H](CSC1=CC=CC=C1)NC2=C(C=C(C=C2)S(=O)(=O)NC(=O)C3=CC=C(C=C3)N4CCC(CC4)[C@H](C5=CC=CC=C5C6=CC=C(C=C6)Cl)O)S(=O)(=O)C(F)(F)F)CCO [AZD4320] (first compound max 10 µM, 7x7, partner max 1 µM) | -0.0053 | -0.0282 | -0.0358 | – | – | – | – | 0.0632 | 0.025 | 0.0056 | – | – | -0.119 | -0.0718 | – | -0.0608 | -0.136 | – | -0.0674 | – |
| CCc1c2c(nc3ccc(O)cc13)-c1cc3c(c(=O)n1C2)COC(=O)[C@]3(O)CC [SN-38] + O=C(c1cc(Cc2n[nH]c(=O)c3ccccc23)ccc1F)N1CCN(C(=O)C2CC2)CC1 [Olaparib] (first compound max 0.3 µM, 7x7, partner max 10 µM) | 0.104 | – | 0.0041 | 0.0478 | -0.0008 | 0.061 | 0.0521 | – | – | 0.0607 | 0.107 | 0.112 | 0.0452 | 0.0877 | 0.0007 | 0.0328 | – | -0.0221 | 0.102 | 0.0184 |
| C[C@@H](c1ccc2nccn2c1)n1nnc2ncc(-c3cnn(C)c3)nc21 [Savolitinib] + CN(CC[C@H](CSC1=CC=CC=C1)NC2=C(C=C(C=C2)S(=O)(=O)NC(=O)C3=CC=C(C=C3)N4CCC(CC4)[C@H](C5=CC=CC=C5C6=CC=C(C=C6)Cl)O)S(=O)(=O)C(F)(F)F)CCO [AZD4320] (first compound max 1 µM, 7x7, partner max 1 µM) | -0.0082 | -0.0267 | -0.0604 | – | – | – | – | -0.042 | -0.0448 | -0.0545 | – | – | -0.0558 | -0.0412 | – | -0.0349 | -0.0468 | – | 0.0096 | – |
